Measured values reported in patent publication US5861424A, “Composition and method for treating cancer” (priority 1995, dated 1999).
Where two headings read alike, the source gives them in different places.

Key:
[1] = tested on: human colon carcinoma cell line CX-1; experiment: Colony formation assay, human colon carcinoma CX-1; type: cell-based; conditions: for IC50: Homo sapiens, Colon carcinoma cell; for Selectivity (ratio of IC50 for CV-1 and IC50 for CX-1): CV-1/CX-1
Procedure: (§2) Human colon carcinoma cell line CX-1 or normal monkey kidney epithelial cell line CV-1 was chosen as representatives of cancer cells and normal cells, respectively. […] CX-1 cells (2,000 cells/well) and CV-1 cells (1,000 cells/well) were plated in 24-well plastic culture plates. […] The control received culture media only. Cells were treated with compounds of General Formulas (1) to (6) at 37° C. for 24 hours. After rinsing with fresh culture medium three times, the cells were further incubated at 37° C. for 7 to 10 days. Cell colonies were fixed and stained with 2% crystal violet in 70% ethanol for 10 minutes and rinsed in water. […] The selectivity is defined as the ratio of IC50 for CV-1 and IC50 for CX-1.

[2] = tested on: human breast carcinoma MCF-7 cell line; experiment: Colony formation assay, human breast carcinoma MCF-7; type: cell-based; conditions: Table VI; for IC50: Homo sapiens, MCF7, 24 h, 24 h treatment, read-out: MCF-7 (IC50); for Selectivity (CV-1 IC50 / MCF-7 IC50): CV-1/MCF-7
Text: (§1) The control received culture media only.
The Selectivity values, MCF-7 values and CV-1 values for compounds of the General Formulas (1) to (6) used in the present invention are shown in Table VI below.

[3] = tested on: human bladder carcinoma EJ cell line; experiment: Colony formation assay, human bladder carcinoma EJ; type: cell-based; conditions: Table IV; for IC50: Homo sapiens, EJ, 24 h, read-out: EJ (IC50); for Selectivity (CV-1 IC50 / EJ IC50): CV-1/EJ
Text: as §1

human melanoma LOX = experiment: Survival of nude mice implanted with human melanoma LOX; type: in vivo, human melanoma in male athymic Swiss nu/nu mouse; conditions: Mus musculus, ip, 24 h, read-out: T/C (survival)
Procedure: LOX, a human melanoma cell line, grown subcutaneously in nude mice was excised, trypsinized to yield a single cell suspension using a metal grid with a […]. Red blood cells were lysed by incubation with 0.17 molar ammonium chloride at 4° C. for 20 minutes. Five million viable trypan blue negative cells made up in 0.1 ml of Dulbecco modified Eagles' medium (DME) were injected into the peritoneal cavity of a male athymic Swiss nu/nu mouse. The control group and each treatment group consisted of 5 to 10 mice. Treatment was commenced the following day by intraperitoneal injection.
Ten control mice received 0.25 ml of 2% dextrose on those days the treated groups were injected with the compounds of this invention. The compounds of the General Formulas. (1) to (6) used in this invention which were tested are listed in Table VIII below and the results obtained are shown in Table VIII and FIG. 1-6 of the accompanying drawings. T/C is the ratio, expressed as a percentage of the mean survival age of the treated group to the mean survival age of the untreated control group.

[4] = tested on: human colon carcinoma CX-1; experiment: Anti-human colon carcinoma CX-1 activity in nude mice, tumor inhibition; type: in vivo, human colon carcinoma in Swiss nu/nu mice; conditions: Mus musculus, ip, 24 h
Text: Human colon carcinoma cell line CX-1 has been chosen by the National Cancer Institute as a mode for cancer drug screening (NCI Protocol 3C2H2). It was established in culture from the surgical explant of the primary colon adenocarcinoma of a person with no previous chemotherapy. The cultured CX-1 cells, upon subcutaneous injection, can grow readily in nude mice as a moderately- to well-differentiated human colon carcinoma. CEA is expressed as expected for differentiated colon carcinoma cells. Abundant keratin, consistent with epithelial origin, is present. Increased uptake and prolonged retention of delocalized lipophilic cations are observed.
Swiss nu/nu mice obtained from Taconic Farm were housed in a pathogen-free environment. Tumors subcutaneously passaged in nude mice were excised under sterile conditions and converted to a single cell suspension using a metal grid with a 0.4 mm mesh. Red blood cells were lysed by incubation with 0.17M ammonium chloride at 4° C. for 20 minutes. Cells were scored for viability with trypan blue. Viable CX-1 cells (2.5 million) made up in 0.1 ml of cell culture medium were injected subcutaneously into each nude mouse. The mice were randomly allocated into a control group (five mice) and a treatment group (five mice per group). The drug treatment was commenced the next day. Doses and schedules were developed empirically and were based mainly on information on LD50 and LD10 obtained from preliminary toxicity studies. The control group received an equivalent volume of hydroxylpropyl-β-cyclodextrin-5% glucose solution.
The pharmaceutical compositions tested comprised solutions in 5% glucose subjected to sonication at concentrations of 1 mg/ml. Those compounds which were not completely dissolved by this procedure were dissolved in hydroxypropyl-β-cyclodextrin using the following method. Hydroxypropyl-β-cyclodextrin (45 g) was mixed with 100 ml of sterilized, double distilled water and stirred for four hours. Each of the compounds to be tested (20 mg) was mixed with 10 ml of hydroxypropyl-β-cyclodextrin solution and sonicated for 60 minutes in the dark. This solution was then diluted in 5% glucose to yield a final compound concentration of 0.5 mg/ml, and further sonicated for 60 minutes in the dark to assure that the compound was completely dissolved.
When the growth of tumors in the control group reached the exponential phase and the size of the tumor was palpable (usually 20 to 30 days after tumor implantation), the experiments were terminated. Tumors in each mouse were excised and weighed using an analytical balance. Total tumor weight in each group from five mice was calculated. Per cent tumor inhibition between the treated group and the control group was then calculated for each group.

[5] = tested on: human pancreatic carcinoma CRL 1420 cell line; experiment: Colony formation assay, human pancreatic carcinoma CRL 1420; type: cell-based; conditions: Table VII; for IC50: Homo sapiens, 24 h; for IC50 / CRL-1420 (IC50): 24 h treatment; for Selectivity (CV-1 IC50 / CRL-1420 IC50): CV-1/CRL-1420
Text: as §1
The Selectivity values, CRL 1420 values and CV-1 values for compounds of the General Formulas (1) to (6) used in the present invention are shown in Table VII below.

[6] = tested on: normal monkey kidney epithelial cell line CV-1; experiment: Colony formation assay, normal monkey kidney epithelial cells CV-1; conditions: Primates, Epithelial cell;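 further: colonies visualized by crystal violet staining, incubation at 37 °C, IC50 relative to untreated wells given culture medium alone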
Procedure: as §2

[7] = tested on: human melanoma LOX cell line; experiment: Colony formation assay, human melanoma LOX; type: cell-based; conditions: Table V; for IC50: Homo sapiens, LOX, 24 h, read-out: LOX (IC50); for Selectivity (CV-1 IC50 / LOX IC50): CV-1/LOX
Text: as §1

normal nude mice = experiment: Toxicity to normal nude mice
[8] = tested on: human ovarian carcinoma OVCAR-3; experiment: Survival of nude mice implanted with human ovarian carcinoma OVCAR-3; type: in vivo, human ovarian carcinoma in athymic Swiss nu/nu mice
Procedure: A human ovarian carcinoma cell line, OVCAR-3, was used. Ten million cells of this cell line were injected IP into ten athymic Swiss nu/nu mice. Ten mice into which these cancer cells had been injected were selected as a control group and received in equal volume of 5% dextrose as that of the treated group. The compounds of the General Formulas (1) to (6) which were tested and the results obtained are shown in Table IX below and in FIG. 7-9 of the accompanying drawings.

[9] = Table III, 24 h treatment, colony count after 7 to 10 days, read-out: CX-1 (IC50)
[10] = i.p. on day 1, 4, 7, 11, 15, 18
[11] = read-out: CV-1 (IC50), Table III, 24 h treatment, colony count after 7 to 10 days
[12] = read-out: CV-1 (IC50), Table IV
[13] = read-out: CV-1 (IC50), Table VI
[14] = read-out: CV-1 (IC50), Table VII

SMILES | IC50 [1, 9] | Selectivity (ratio of IC50 for CV-1 and IC50 for CX-1) ([1]; Table III) | IC50 [2] | Selectivity (CV-1 IC50 / MCF-7 IC50) [2] | Selectivity (CV-1 IC50 / EJ IC50) [3] | Selectivity (CV-1 IC50 / CRL-1420 IC50) [5] | IC50 [6, 11] | IC50 [6, 12] | IC50 ([6]; read-out: CV-1 (IC50), Table V) | IC50 [6, 13] | IC50 [6, 14] | Selectivity (CV-1 IC50 / LOX IC50) [7] | other results
CCN1C(=CC=c2sc(=Cc3sc4c5ccccc5ccc4[n+]3CC)n(C)c2=O)Sc2ccc3ccccc3c21 [Compound 45] | 0.02 µg/mL | 1000 | 0.06 µg/mL | 333 | 400 | 286 | 20 µg/mL | 20 µg/mL | 20 µg/mL | 20 µg/mL | 20 µg/mL | 286 | IC50 ([3]; 24 h treatment): 0.05 µg/mL; response vs control in vivo at 20 mg/kg (human melanoma LOX; i.p. on day 1, 2, 3, 6, 9, 13): 137%; inhibition in vivo at 20 mg/kg [4, 10]: 56.8%; IC50 [5]: 0.07 µg/mL; IC50 ([7]; 24 h treatment): 0.07 µg/mL
CCN1C(=CC=c2sc(=Cc3sc4c([n+]3CC)CCCC4)n(CC)c2=O)Oc2ccccc21 [Compound A, reference compound] | 0.04 µg/mL |  |  |  |  |  | 2 µg/mL |  |  |  |  |  | toxicity to normal nude mice (normal nude mice): less toxic to normal nude mice
CCN1/C(=C/C=C/c2sc3ccccc3[n+]2CC)Sc2ccccc21 [B, reference compound] |  |  |  |  |  |  | 0.6 µg/mL |  |  |  |  |  | toxicity to normal nude mice (normal nude mice): highly toxic to normal nude mice
CCN1C(=CC=c2sc(=Cc3sc4c5ccccc5ccc4[n+]3C)n(C)c2=O)Sc2ccc3ccccc3c21 [Compound 46] | 0.05 µg/mL | 400 | 0.082 µg/mL | 244 | 244 | 312 | 20 µg/mL | 20 µg/mL | 20 µg/mL | 20 µg/mL | 20 µg/mL | 312 | IC50 ([3]; 24 h treatment): 0.082 µg/mL; response vs control in vivo at 20 mg/kg (human melanoma LOX; i.p. on day 1, 3, 6, 9, 13, 16): 222%; inhibition in vivo at 20 mg/kg ([4]; i.p. on day 1, 5, 7, 9): 60.1%; IC50 [5]: 0.064 µg/mL; IC50 ([7]; 24 h treatment): 0.064 µg/mL
CCN1C(=CC=c2sc(=Cc3sc4c5ccccc5ccc4[n+]3CC)n(CC)c2=O)Sc2ccc3ccccc3c21 [Compound 54] |  | 500 | 0.05 µg/mL | 400 | 500 | 400 |  | 20 µg/mL | 20 µg/mL | 20 µg/mL | 20 µg/mL | 286 | CX-1 (IC50) ([1]; Table III, 24 h treatment, colony count after 7 to 10 days): 0.04 µg/mL; EJ (IC50) ([3]; 24 h treatment): 0.04 µg/mL; inhibition in vivo at 5 mg/kg ([4]; i.p. on day 1, 5, 9, 13): 42.6%; CRL-1420 (IC50) [5]: 0.05 µg/mL; LOX (IC50) ([7]; 24 h treatment): 0.07 µg/mL
C=CCn1c(=Cc2sc3c4ccccc4ccc3[n+]2CC)sc(=CC=C2C=CN(CC)c3ccccc32)c1=O [Compound 290] | 0.025 µg/mL | 100 |  |  |  |  | 2.5 µg/mL |  |  |  |  |  | T/C (survival) ([8]; 2 mg/kg, i.p. on day 1, 5, 9, 18, 48): 356%
CCN1/C(=C/C=C/c2sc3c4ccccc4ccc3[n+]2CC)Sc2c1ccc1ccccc21 [C, reference compound] | 0.05 µg/mL |  |  |  |  |  | < 0.1 µg/mL |  |  |  |  |  | toxicity to normal nude mice (normal nude mice): highly toxic to normal nude mice
CCn1c(=Cc2sc3c4ccccc4ccc3[n+]2CC)sc(=CC=C2Sc3ccc4ccccc4c3N2C)c1=O [Compound 32] | 0.02 µg/mL | 1000 |  |  |  | > 200 | 20 µg/mL |  |  |  | 20 µg/mL |  | response vs control in vivo at 40 mg/kg (human melanoma LOX; 40 mg/kg, i.p. on day 1, 2, 3, 4, 5, 7, 8, 9, 10): 231%; inhibition in vivo at 20 mg/kg ([4]; i.p. on day 1, 2, 4, 6, 8): 40.5%; CRL-1420 (IC50) [5]: < 0.1 µg/mL
CCN1C(=CC=c2sc(=Cc3cc[n+](CC)c4ccccc34)n(CC)c2=O)C=Cc2ccccc21 [Compound 247] |  | 200 |  |  |  |  | 20 µg/mL |  |  |  |  |  | T/C (survival) ([8]; 20 mg/kg, i.p. on day 1, 5, 9, 14, 23, 48): > 378%; IC50 ([1]; read-out: CX-1 (IC50), Table III, 24 h treatment, colony count after 7 to 10 days): 0.1 µg/mL; response vs control in vivo at 20 mg/kg (human melanoma LOX; i.p. on day 1, 2, 3, 4, 8, 9): 227%; inhibition in vivo at 20 mg/kg ([4]; i.p. on day 1, 5, 11, 15, 20, 26, 34): 75%
CCN1CCSC1=CC=c1sc(=Cc2sc3c4ccccc4ccc3[n+]2CC)n(CC)c1=O [Compound 116] |  |  |  |  |  |  |  |  |  |  |  |  | T/C (survival) ([8]; 5 mg/kg, i.p. on day 1, 5, 9, 14, 19, 23, 27, 48): > 378%; response vs control in vivo at 5 mg/kg (human melanoma LOX; 5 mg/kg, i.p. on day 1, 5, 9, 13, 17, 22): 582%; inhibition in vivo at 5 mg/kg ([4]; i.p. on day 1, 6, 10, 14, 19, 23): 77%
CC[n+]1c(C=c2sc(=CC=C3Sc4ccc5ccccc5c4N3C)c(=O)n2C)sc2c3ccccc3ccc21 [Compound 47] | 0.05 µg/mL | 400 | 0.1 µg/mL | 200 | 244 | 312 | 20 µg/mL | 20 µg/mL | 20 µg/mL | 20 µg/mL | 20 µg/mL | 244 | IC50 ([3]; 24 h treatment): 0.082 µg/mL; response vs control in vivo at 20 mg/kg (human melanoma LOX; i.p. on day 1, 3, 6, 9, 13, 16): 156%; inhibition in vivo at 20 mg/kg [4, 10]: 64.1%; IC50 [5]: 0.064 µg/mL; IC50 ([7]; 24 h treatment): 0.082 µg/mL
